Like-named read-outs stand apart in the source and are kept apart here.
Tests used:
[1] = system: F21T K+ (human telomeric G-quadruplex, potassium buffer); type: binding; conditions: oligonucleotide 200 nM
[2] = system: Fmt6363T (human mitochondrial G-quadruplex); assay: FRET melting assay, Fmt6363T; type: binding; conditions: oligonucleotide 200 nM
other G4 sequences = assay: FRET melting assay, other examined G4s; type: binding; conditions: ligand 10 μM; range over the remaining G4s
Procedure: The stabilization of G4 structures was initially evaluated by using the Förster resonance energy transfer (FRET) melting assay. This analysis evaluated the binding of the compounds against four G4-forming oligonucleotides and a hairpin duplex sequence to determine both G4:duplex and G4:G4 selectivity.
FRET melting assays were performed to assess ligand affinity for duplex and G-quadruplex DNA.
proximity of the donor and quencher result in no observed fluorescence from FAM, since energy
is transferred non-radiatively to TAMRA by FRET. As the temperature is raised and the secondary
structure denatures, the fluorophores move further apart and the fluorescence signal increases.
From the resulting curve, the characteristic melting temperature (Tmax, also referred to as Tm) is
defined as the temperature which corresponds to the maxima of the first derivative of the
normalised fluorescence signal. The change in melting temperature (ΔTm) induced by the presence
of a small molecule ligand provides an indication of the ligand’s ability to stabilise the DNA
co-workers 12 on an AriaMx qPCR instrument.
min, before heating at 1 °C/min to 96 °C in 1 °C increments, followed by monitoring the
fluorescence output at each increment for 1 min. The fluorescence emission of FAM was followed
The final concentration of oligonucleotide was 200 nM in all cases. For F21T in Na+ conditions, […]

[3] = system: promastigote form of L. major; assay: MTT-based antileishmanial assay, promastigotes; type: cell-based, Leishmania major; conditions: Leishmania major; promastigotes, 72 h, MTT; error as σ
Procedure: The antileishmanial activity of the compounds against the promastigote form of L. major, the […] was determined using an MTT-based assay (Sigma-Aldrich). Stock solutions of the compounds were prepared in DMSO with the final DMSO percentage in each well maintained below 1%. 4 × 10^6 parasites per mL were incubated at 28 °C in 96-well plates (50 μL/well) either alone or in the presence of increasing concentrations of compounds DMSO for 72 h. After the incubation period, 10 μL of MTT (5 mg/mL) was added to each well, and the parasites were incubated for 4 h at 28 °C. Subsequently, cell lysis was performed using 50 μL/well of 20% SDS. […] Data were presented as the average of at least three independent measurements, each conducted under triplicate conditions. […] “single marker” […] S7

[4] = system: FEbr1T (T. brucei G-quadruplex); assay: FRET melting assay, FEbr1T; type: binding; conditions: oligonucleotide 200 nM
[5] = system: Fmt6363T (DNA, G4) AGGGACGCGGGCGGGGGATATAGGGT; assay: FRET melting; conditions: K+ (10 mM KCl), 90 mM LiCl; 10 mM Li cacodylate; compound 10 µM, DNA 200 nM
[6] = system: F10T (DNA, hairpin, hexaethylene glycol (HEG, [(-CH2CH2O-)6]) linker between 10 and 11) TATAGCTATATATAGCTATA; assay: FRET melting; conditions: K+ (10 mM KCl), 90 mM LiCl; 10 mM Li cacodylate; compound 10 µM, DNA 200 nM
[7] = system: FMycT (c-Myc promoter G4); assay: FRET melting assay, FMycT; type: binding; conditions: oligonucleotide 200 nM
[8] = system: F21T Na+ (human telomeric G-quadruplex, sodium buffer); type: binding; conditions: oligonucleotide 200 nM
[9] = system: FEbr1T (DNA, G4) GGGCAGGGGGTGATGGGGAGGAGCCAGGG; assay: FRET melting; conditions: K+ (10 mM KCl), 90 mM LiCl; 10 mM Li cacodylate; compound 10 µM, DNA 200 nM
BSF T. brucei parasites = assay: CellTiter-Glo luminescent cell viability assay; type: cell-based; conditions: Trypanosoma brucei, 72 h, read-out: IC50 T. brucei (CellTiter-Glo)
Procedure: Ten μL portion of Cell Titer Glo was then added to every well, and after 10 min of incubation at room temperature, the luminescence of the plates was recorded using the Infinite F200 plate reader (TECAN Austria, GmbH). […] Presented data are the mean value of three independent measurements, all of them conducted under triplicate conditions.

MRC-5 cells [10] = assay: alamarBlue cytotoxicity assay, MRC-5; type: cell-based; conditions: MRC5, human lung fibroblasts, 72 h
[11] = system: bloodstream form of T. brucei; assay: alamarBlue (resazurin) antitrypanosomal assay; type: cell-based, Trypanosoma brucei; conditions: Trypanosoma brucei; bloodstream form, 72 h, alamarBlue/resazurin; error as σ
[12] = system: F10T (hairpin duplex DNA); type: binding; conditions: oligonucleotide 200 nM
[13] = system: F21T (DNA, G4) GGGTTAGGGTTAGGGTTAGGG; assay: FRET melting; conditions: K+ (10 mM KCl), 90 mM LiCl; 10 mM Li cacodylate; compound 10 µM, DNA 200 nM
mt6363 G4 = assay: UV-vis absorbance titration; type: binding, human; conditions: ligand 10 μM, 100 mM potassium phosphate, pH 7.4; numbers only in Figure 6
Procedure: Furthermore, the analysis confirmed its selectivity for G4 structures over duplex DNA.
6 (A) Equilibrium binding constants calculated for compounds 2b and 2c with several G-quadruplexes (telo23, Ebr1, and mt6363) and a duplex DNA (ds26) sequence. (B) UV–vis titration of 2b with telo23, mt6363, Ebr1, and ds26. Buffer = 100 mM potassium phosphate, pH 7.4. Ligand concentration: 10 μM. […]
oligonucleotides were at a concentration of 5 µM in potassium phosphate buffer (100 mM, pH 7.4). Data processing was carried out using Python and Prism 10 (GraphPad Software) with a 4-point second order smoothing polynomial applied to all spectra. Observed ellipticities were converted to molar ellipticity.
Absorbance spectra were recorded on a Cary 60 UV-Visible spectrophotometer using a room-light immune fibre optic probe with 10 mm path length. The UV-Vis spectra were recorded between 700 – 300 nm and were corrected for background and buffer absorbance.
In the titrations, the concentration of ligand was fixed at 10 µM in an initial volume of 500 µL in potassium phosphate buffer (100 mM, pH 7.4). […]
Table S1. Synthesis and photophysical data in acetonitrile solution (absorption, λabs, fluorescence emission maxima, λfluo, molar absorptivity, Ɛ and fluorescence quantum yield, ɸF) for the 2-ethenyl-benzothiazolium derivatives 2a-j. […]

HeLa cells = assay: alamarBlue antiproliferative assay, HeLa; type: cell-based, human; conditions: Homo sapiens, HeLa; 72 h, alamarBlue
[14] = system: Ebr1 (DNA, G4) GGGCAGGGGGTGATGGGGAGGAGCCAGGG; assay: CD titration; conditions: K+ (100 mM potassium phosphate); pH 7.4, 20 °C, DNA 5 µM
[15] = system: intracellular amastigote form of L. major; assay: Luciferase assay, intracellular amastigotes in THP-1 macrophages; type: cell-based, Leishmania major; conditions: Leishmania major
Procedure: The antileishmanial activity of the compounds against the intracellular form of L. major was evaluated using the Luciferase Assay System kit from Promega. THP-1 cells were seeded at a density of 3 × 10^5 cells/mL in 96-well plates (100 μL/well) and treated with 20 ng/mL PMA (phorbol 12-myristate 13-acetate, Sigma) for 48 h to induce differentiation. Postdifferentiation, the cells were washed, and fresh medium was added (100 μL/well) before being reincubated. Following an additional 24 h, the wells were washed, and 50 μL of L. major parasites at a density of 1.5 × 10^6 parasites/mL (suspended in RPMI-1640 medium 5% hiFBS and 5% penicillin/streptomycin) were added to the wells. The plates were then incubated at 35 °C in 5% CO2. After 24 h, the wells were washed three times with PBS, and fresh medium with increasing concentrations of compounds was added (100 μL/well). After another 72 h of incubation, the cells were then treated with 25 μL of lysis buffer and stored at −80 °C. Following 24 h, 25 μL of luciferase enzyme substrate was added to each well, and the luciferase activity of the amastigotes was determined using a TECAN Infinite F200 microplate reader. […] Data were presented as the average of at least three independent measurements, each conducted under triplicate conditions.
Parasite and cell culturing […]
Leishmania major (MHOM/IL/80/Friedlin) promastigotes and its derivative luminescent strain L. major LucRE9 with the luciferase gene integrated into the parasite genome (LUC) were cultured at 28 °C, 5 % CO2 in modified RPMI-1640 medium (Invitrogen, Carlsbad, CA) supplemented with 10 % hiFBS6, including […] blasticidin in the LucRE9 strain. 7 Parasites were maintained in culture in their […] growth phase (below 2 million T. brucei parasites per mL, ,10 million L. major parasites per mL for promastigotes experiments), and in the stationary phase , 20 million L. major parasites per mL for THP -1 infection experiments.
MRC-5 cell line (human lung fibroblast) was grown in monolayer at 37 °C, 5 % CO2 in DMEM medium (1 g/L glucose) supplemented with 10% hiFBS, 100 U/mL penicillin, […] streptomycin and 2 mM L-glutamine.8
THP-1 cells (human monocytic cell line) were maintained in RPMI-1640 medium supplemented with 10% heat-inactivated fetal bovine serum (hiFBS) and 5 % penicillin/streptomycin (37 °C, 5 % CO2, and 100 % humidity). […]

THP-1 cells = assay: alamarBlue cytotoxicity assay, PMA-differentiated THP-1; type: cell-based, human; conditions: Homo sapiens, PMA-differentiated THP-1, 72 h
HT-29 cells = assay: alamarBlue antiproliferative assay, HT-29; type: cell-based, human; conditions: Homo sapiens, HT-29; 72 h, alamarBlue
[16] = system: telo23 (DNA, G4) TAGGGTTAGGGTTAGGGTTAGGG; assay: CD titration; conditions: K+ (100 mM potassium phosphate); pH 7.4, 20 °C, DNA 5 µM
[17] = system: mt6363 (DNA, G4) AGGGACGCGGGCGGGGGATATAGGGT; assay: CD titration; conditions: K+ (100 mM potassium phosphate); pH 7.4, 20 °C, DNA 5 µM
[18] = system: bloodstream form of T. brucei; parameters: method as in number not given; conditions: footnote c 'From ref', ref number not given; cited from earlier work
MRC-5 cells [19] = system: MRC-5 cells; parameters: method as in number not given; conditions: footnote c 'From ref', ref number not given; cited from earlier work
[20] = system: promastigote form of L. major; parameters: method as in number not given; conditions: promastigotes; footnote c 'From ref', ref number not given; cited from earlier work

## Cc1ccc2c(c1)sc(-c1ccc(N(C)C)cc1)[n+]2C [ThT, Thioflavin T, reference compound]
[1]; ligand 10 μM, 10 mM KCl
  ΔTm F21T K+: 5.5 ± 0.2 °C
[2]; ligand 10 μM, 10 mM KCl
  ΔTm Fmt6363T: 2.9 ± 0.4 °C
Other G4 sequences
  ΔTm for the other examined G4 sequences: 1.4–5.5 °C
[3]
  IC50: 23 ± 0.2 nM
[4]; ligand 10 μM, 10 mM KCl
  ΔTm FEbr1T: 4.5 ± 0.7 °C
[5]
  ΔTm: 2.9 ± 0.4 °C
[6]
  ΔTm: 0.1 ± 0.1 °C
[7]; ligand 10 μM, 1 mM KCl
  ΔTm FMycT: 15.0 °C
[8]; ligand 10 μM, 100 mM NaCl
  ΔTm F21T Na+: 1.4 ± 0.2 °C
[9]
  ΔTm: 4.5 ± 0.7 °C
BSF T. brucei parasites; BSF parasites, luminescence
  IC50: 62 ± 3 nM
MRC-5 cells [10]
  IC50: 183 ± 38 nM
[11]
  IC50: 4.7 ± 0.3 nM
[12]; ligand 10 μM, 10 mM KCl
  ΔTm F10T: 0.1 ± 0.1 °C
[13]
  ΔTm: 5.5 ± 0.2 °C

## CN(C)c1ccc(/C=C/c2sc3ccccc3[n+]2C)cc1.[I-] [compound 2b]
[1]; ligand 10 μM, 10 mM KCl
  ΔTm F21T K+: 13.1 ± 0.5 °C
[2]; ligand 10 μM, 10 mM KCl
  ΔTm Fmt6363T: 19.8 °C
mt6363 G4
  binding affinity (equilibrium binding constant): higher affinity for the mt6363 G4 structure compared with the other G4 sequences
HeLa cells
  IC50: 9280 ± 770 nM
[14]
  binding: yes
[15]; THP-1, intracellular amastigotes
  IC50: 0.48 nM
[15]; intracellular amastigotes in THP-1 macrophages, 72 h, luciferase
  IC50: 0.484 ± 0.617 nM
THP-1 cells
  IC50: 480 ± 110 nM
[4]; ligand 10 μM, 10 mM KCl
  ΔTm FEbr1T: 13.1 °C
[5]
  ΔTm: 19.8 ± 0.4 °C
HT-29 cells
  IC50: 6560 ± 490 nM
[16]
  binding: yes
[6]
  ΔTm: 2.3 ± 0.2 °C
[7]; ligand 10 μM, 1 mM KCl
  ΔTm FMycT: 8.6 ± 0.9 °C
[8]; ligand 10 μM, 100 mM NaCl
  ΔTm F21T Na+: 9.1 ± 0.3 °C
BSF T. brucei parasites
  IC50: 0.55 ± 0.23 nM
[17]
  binding: yes
[11]
  IC50: 0.019 ± 0.0053 nM
[12]; ligand 10 μM, 10 mM KCl
  ΔTm F10T: 2.3 ± 0.2 °C

## C[n+]1ccc(-c2c3nc(c(-c4cc[n+](C)cc4)c4ccc([nH]4)c(-c4cc[n+](C)cc4)c4ccc([nH]4)c(-c4cc[n+](C)cc4)c4nc2C=C4)C=C3)cc1 [TMPyP4, reference compound]
[1]; positive control at 1 μM
  ΔTm F21T K+: 16.4 ± 0.4 °C
[2]; positive control at 1 μM
  ΔTm Fmt6363T: 7.1 ± 0.4 °C
[18]
  IC50: > 10000 nM
[4]; positive control at 1 μM
  ΔTm FEbr1T: 12.4 ± 0.9 °C
MRC-5 cells [19]
  IC50: > 25000 nM
[20]
  IC50: 20800 ± 4860 nM
[7]; positive control at 1 μM
  ΔTm FMycT: 12.6 ± 1.1 °C
[8]; positive control at 1 μM
  ΔTm F21T Na+: 10.4 ± 0.4 °C
[12]; positive control at 1 μM
  ΔTm F10T: 1.7 ± 0.1 °C

Reference: paper PMC12643529 (ACS Infectious Diseases, 2025)
